Laboratory results published in paper PMC8315801, “The fluoride permeation pathway and anion recognition in Fluc family fluoride channels” (eLife, 2021).

How the values were obtained:
Assay in all cases: biochemical
Fluc-Bpe [1] = molecular target: Fluc-Bpe (Bordetella pertussis, UniProt Q7VYU0, E88Q/R29K/S83C)
Excerpt: (§1) planar lipid bilayer, block of fluoride current, oriented channels, single-site fit on Fluc-Bpe

Fluc-Bpe [2] = molecular target: Fluc-Bpe (Bordetella pertussis, UniProt Q7VYU0, R29K/S83C)
Excerpt: as §1

Fluc-Bpe [3] = molecular target: Fluc-Bpe (Bordetella pertussis, UniProt Q7VYU0, R29K)
Excerpt: planar lipid bilayer, block of fluoride current, two-site fit on Fluc-Bpe

Sequence of Fluc-Bpe (Bordetella pertussis, UniProt Q7VYU0, R29K) (Q7VYU0 whole entry R29K): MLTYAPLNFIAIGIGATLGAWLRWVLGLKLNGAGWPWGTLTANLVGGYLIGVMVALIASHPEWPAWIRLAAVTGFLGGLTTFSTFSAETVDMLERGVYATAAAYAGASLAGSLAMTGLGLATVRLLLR
Sequence of Fluc-Bpe (Bordetella pertussis, UniProt Q7VYU0, R29K/S83C) (Q7VYU0 whole entry R29K/S83C): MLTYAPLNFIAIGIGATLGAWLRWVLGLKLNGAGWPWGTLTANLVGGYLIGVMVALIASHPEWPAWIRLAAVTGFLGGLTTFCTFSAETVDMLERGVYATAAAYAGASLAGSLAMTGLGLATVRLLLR
Sequence of Fluc-Bpe (Bordetella pertussis, UniProt Q7VYU0, E88Q/R29K/S83C) (Q7VYU0 whole entry E88Q/R29K/S83C): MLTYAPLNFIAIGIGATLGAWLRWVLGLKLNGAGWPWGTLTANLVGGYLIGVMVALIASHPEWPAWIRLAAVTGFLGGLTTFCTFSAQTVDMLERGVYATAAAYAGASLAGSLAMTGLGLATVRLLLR

N#CO [OCN^-]
Ki (Fluc-Bpe [1]): 48.9 mM | Ki (Fluc-Bpe [2]): 7.9 mM | Ki (Fluc-Bpe [3]): 6.8 mM

N#CS [SCN^-]
Ki (Fluc-Bpe [3]): 9 mM

O=[N+]([O-])O [NO3^-]
Ki (Fluc-Bpe [3]): 45 mM
